Starred links: 1 amine or outer side, 2 acyl side, 3 side chain; linkers in the order of their positions; H or OH if unused. Non-standard residues stand in square brackets, D forms with d. Residues, ends and D or L forms follow the SMILES beside them. Groups on a side chain read outwards from the residue. *: point of attachment. Tetrahydroisoquinolin(2-yl) = c1ccc2c(c1)CCN(*)C2; Pro(3S-Et) = CC[C@H]1CCN[C@@H]1C(=O)O; X1 = CCC[C@H](N[*:1])C(=O)C(=O)[*:2]; Pyrazinecarbonyl = O=C(c1cnccn1)*; Hyp = O=C(O)[C@@H]1C[C@@H](O)CN1; CO = O=C([*:1])[*:2]
Target: Hepatitis C virus serine protease, NS3/NS4A (Hepatitis C virus, UniProt A3EZI9+D2K2A8)
Sequence (D2K2A8 whole entry): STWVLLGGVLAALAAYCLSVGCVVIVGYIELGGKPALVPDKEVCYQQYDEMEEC
Sequence (A3EZI9 whole entry): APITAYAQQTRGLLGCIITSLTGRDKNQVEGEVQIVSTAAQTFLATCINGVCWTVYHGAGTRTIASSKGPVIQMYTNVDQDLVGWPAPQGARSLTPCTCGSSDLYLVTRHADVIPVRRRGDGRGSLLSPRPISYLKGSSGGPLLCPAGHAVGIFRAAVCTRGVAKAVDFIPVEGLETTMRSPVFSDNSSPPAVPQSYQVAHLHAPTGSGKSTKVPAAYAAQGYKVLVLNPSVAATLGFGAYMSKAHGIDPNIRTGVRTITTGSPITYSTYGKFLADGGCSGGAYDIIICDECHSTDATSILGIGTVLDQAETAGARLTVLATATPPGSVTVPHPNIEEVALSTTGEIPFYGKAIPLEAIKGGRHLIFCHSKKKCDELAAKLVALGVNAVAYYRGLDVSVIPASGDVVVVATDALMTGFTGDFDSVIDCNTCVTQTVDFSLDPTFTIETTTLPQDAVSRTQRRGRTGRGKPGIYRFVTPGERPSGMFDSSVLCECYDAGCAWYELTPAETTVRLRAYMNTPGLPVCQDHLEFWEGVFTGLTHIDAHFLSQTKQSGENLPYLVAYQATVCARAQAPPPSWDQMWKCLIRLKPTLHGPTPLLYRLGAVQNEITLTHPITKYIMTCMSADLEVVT
Experiment: (§1) Inhibitory activity against hepatitis C virus NS3.4A protease
Assay type: protein-complex assay, Hepacivirus hominis

SMILES	Ki
CCC[C@H](NC(=O)[C@@H]1CCCN1C(=O)[C@@H](NC(=O)[C@@H](NC(=O)c1cnccn1)C1CCCCC1)C(C)(C)C)C(=O)C(=O)NC1CC1	1200 nM

Target: Hepatitis C virus serine protease, NS3/NS4A (Hepatitis C virus, UniProt D2K2A8+A3EZI9)
Sequence (D2K2A8 whole entry): as the sequence (D2K2A8 whole entry) above
Sequence (A3EZI9 whole entry): as the sequence (A3EZI9 whole entry) above
Experiment: as §1
Assay type: protein-complex assay, Hepacivirus hominis

SMILES	Ki
CCC[C@H](NC(=O)[C@@H]1[C@@H](CC)CCN1C(=O)[C@@H](NC(=O)[C@@H](NC(=O)c1cnccn1)C(C)C)C(C)C)C(=O)C(=O)N[C@@H](Cc1ccccc1)C(=O)O (Pyrazinecarbonyl-VV[Pro(3S-Et)][X1]F-OH)	220 nM
CCC[C@H]1CCN(C(=O)[C@@H](NC(=O)[C@@H](NC(=O)c2cnccn2)C(C)C)C(C)C)[C@@H]1C(=O)N[C@@H](CCC)C(=O)C(=O)N[C@@H](Cc1ccccc1)C(=O)O	1200 nM
C=CC[C@H]1CCN(C(=O)[C@@H](NC(=O)[C@@H](NC(=O)c2cnccn2)C(C)C)C(C)C)[C@@H]1C(=O)N[C@@H](CCC)C(=O)C(=O)N[C@@H](Cc1ccccc1)C(=O)O	210 nM
CC[C@H](NC(=O)[C@@H]1[C@@H](C)CCN1C(=O)[C@@H](NC(=O)[C@@H](NC(=O)c1cnccn1)C(C)C)C(C)C)C(=O)C(=O)N[C@@H](C)c1ccccc1	1400 nM
CCC[C@H](NC(=O)[C@@H]1[C@@H](C(=O)OC)CCN1C(=O)[C@@H](NC(=O)[C@@H](NC(=O)c1cnccn1)C(C)C)C(C)C)C(=O)C(=O)N[C@@H](Cc1ccccc1)C(=O)O	180 nM
CCC[C@H](NC(=O)[C@@H]1C[C@@H](OC(=O)N2CCc3ccccc3C2)CN1C(=O)[C@@H](NC(=O)[C@@H](NC(=O)c1cnccn1)C(C)C)C(C)C)C(=O)C(=O)N[C@@H](Cc1ccccc1)C(=O)O (Pyrazinecarbonyl-VV[Hyp]([CO-Tetrahydroisoquinolin(2-yl)])[X1]F-OH)	20 nM
CC[C@H](NC(=O)[C@@H]1C[C@@H](OCc2ccccc2)CN1C(=O)[C@@H](NC(=O)[C@@H](NC(=O)c1cnccn1)C(C)C)C(C)C)C(=O)C(=O)N[C@@H](C)c1ccccc1	920 nM
CCC[C@H](NC(=O)[C@@H]1[C@@H](C(C)CC)CCN1C(=O)[C@@H](NC(=O)[C@@H](NC(=O)c1cnccn1)C(C)C)C(C)C)C(=O)C(=O)N[C@@H](Cc1ccccc1)C(=O)O (some centres undefined)	120 nM
